Assay results from PMC3265452 (PLoS Neglected Tropical Diseases, 2012).
Where a name gives a salt, the structure may show the parent alone.

What follows are compounds tested against AaDOP2 (Aedes aegypti, UniProt H6D5H2) (assay: AaDOP2 antagonist screen of the LOPAC1280 library (HEK-CRELuc-Aadop2 cells, luminescence)). Conditions: not given.
Chain of AaDOP2 (H6D5H2 1-476): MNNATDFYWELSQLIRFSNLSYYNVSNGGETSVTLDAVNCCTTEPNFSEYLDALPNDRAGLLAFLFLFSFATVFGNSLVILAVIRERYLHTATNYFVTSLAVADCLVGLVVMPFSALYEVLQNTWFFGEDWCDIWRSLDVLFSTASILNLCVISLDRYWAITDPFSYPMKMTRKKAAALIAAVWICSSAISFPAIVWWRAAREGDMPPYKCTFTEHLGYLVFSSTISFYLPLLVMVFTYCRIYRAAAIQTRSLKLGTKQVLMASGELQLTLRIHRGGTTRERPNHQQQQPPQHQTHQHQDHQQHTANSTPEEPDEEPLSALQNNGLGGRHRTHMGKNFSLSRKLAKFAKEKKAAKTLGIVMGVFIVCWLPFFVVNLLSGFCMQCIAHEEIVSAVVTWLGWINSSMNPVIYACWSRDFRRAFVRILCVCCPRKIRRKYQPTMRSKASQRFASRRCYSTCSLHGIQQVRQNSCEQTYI
Format: cell-based
For Nc1nc(Nc2ccccc2)nc2c1ncn2[C@@H]1O[C@H](CO)[C@@H](O)[C@H]1O [Compound 1002, 2-Phenylaminoadenosine], the “Compound effect (percent receptor signaling in presence of test compound, relative lux units relative to the SCH23390 control)” value was 106. For OC[C@H]1O[C@@H](n2cnc3c(NCCc4ccccc4)ncnc32)[C@H](O)[C@@H]1O [Compound 1007, N6-2-Phenylethyladenosine], the “Compound effect (percent receptor signaling in presence of test compound, relative lux units relative to the SCH23390 control)” value was 104. OC[C@H]1O[C@@H](n2cnc3c(Nc4ccccc4)ncnc32)[C@H](O)[C@@H]1O [Compound 1008, N6-Phenyladenosine] was tested, and the “Compound effect (percent receptor signaling in presence of test compound, relative lux units relative to the SCH23390 control)” value was 99. NCC(CP(=O)(O)O)c1ccc(Cl)cc1 (stereo not drawn) [Compound 1009, Phaclofen] was tested, and the “Compound effect (percent receptor signaling in presence of test compound, relative lux units relative to the SCH23390 control)” value was 71. N=C(N)NC(=N)Nc1ccccc1 [Compound 1011, 1-Phenylbiguanide] was tested, and the “Compound effect (percent receptor signaling in presence of test compound, relative lux units relative to the SCH23390 control)” value was 81. In the case of CN/C(=N\c1ccc(C2=NNC(=O)CC2C)cc1)NC#N (stereo not drawn) [Compound 1012, SKF 94836], the “Compound effect (percent receptor signaling in presence of test compound, relative lux units relative to the SCH23390 control)” value is reported as 72. For Cc1nc2ccccn2c(=O)c1CCN1CCC(C(=O)c2ccc(F)cc2)CC1 [Compound 1013, Pirenperone], the “Compound effect (percent receptor signaling in presence of test compound, relative lux units relative to the SCH23390 control)” value was 10. For COc1cc(OC)c(C=C2C(O)=Nc3ccccc32)c(OC)c1 [Compound 1014, IC 261], the “Compound effect (percent receptor signaling in presence of test compound, relative lux units relative to the SCH23390 control)” value was 78. For CC(C)NC[C@H](O)COc1cccc2[nH]ccc12 [Compound 1015, S(-)-Pindolol], the “Compound effect (percent receptor signaling in presence of test compound, relative lux units relative to the SCH23390 control)” value was 87. In the case of CC(N/C(=N\C#N)Nc1ccncc1)C(C)(C)C (stereo not drawn) [Compound 1016, Pinacidil], the “Compound effect (percent receptor signaling in presence of test compound, relative lux units relative to the SCH23390 control)” value is reported as 89. In the case of CC(=O)[C@H]1CC[C@H]2[C@@H]3CC=C4C[C@@H](OS(=O)(=O)[O-])CC[C@]4(C)[C@H]3CC[C@]12C.[Na+] [Compound 1017, Pregnenolone sulfate sodium], the “Compound effect (percent receptor signaling in presence of test compound, relative lux units relative to the SCH23390 control)” value is reported as 107. NC(=Nc1ccccc1)NC(=O)c1nc(Cl)c(N)nc1N [Compound 1020, Phenamil methanesulfonate] was tested, and the “Compound effect (percent receptor signaling in presence of test compound, relative lux units relative to the SCH23390 control)” value was 46. COc1cccc(-c2cc(=O)c3ccccc3o2)c1N [Compound 1023, PD 98,059] was tested, and the “Compound effect (percent receptor signaling in presence of test compound, relative lux units relative to the SCH23390 control)” value was 94. With Cc1cccc(C(=O)NCN2CCN(c3ccccc3C#N)CC2)c1.O=C(O)/C=C\C(=O)O [Compound 1025, PD 168,077 maleate] the “Compound effect (percent receptor signaling in presence of test compound, relative lux units relative to the SCH23390 control)” value was 91. In the case of CN(C)S(=O)(=O)c1ccc2c(c1)/C(=C/c1cc3c([nH]1)CCCC3)C(=O)N2 [Compound 1026, SU 6656], the “Compound effect (percent receptor signaling in presence of test compound, relative lux units relative to the SCH23390 control)” value is reported as 65. For O=C(O)c1cccnc1C(=O)O [Compound 1027, Quinolinic acid], the “Compound effect (percent receptor signaling in presence of test compound, relative lux units relative to the SCH23390 control)” value was 83. In the case of O=c1c(O)c(-c2ccc(O)c(O)c2)oc2cc(O)cc(O)c12 [Compound 1028, Quercetin dihydrate], the “Compound effect (percent receptor signaling in presence of test compound, relative lux units relative to the SCH23390 control)” value is reported as 34. In the case of C=C[C@H]1C[N@@]2CC[C@H]1C[C@@H]2[C@@H](O)c1ccnc2ccc(OC)cc12 [Compound 1029, Quinidine sulfate], the “Compound effect (percent receptor signaling in presence of test compound, relative lux units relative to the SCH23390 control)” value is reported as 69. With O=C(O)/C=C\C(=O)O.O=C(O)/C=C\C(=O)O.c1ccc2nc(N3CCNCC3)ccc2c1 [Compound 1030, Quipazine dimaleate] the “Compound effect (percent receptor signaling in presence of test compound, relative lux units relative to the SCH23390 control)” value was 71. With C=C[C@H]1C[N@@]2CC[C@H]1C[C@H]2[C@H](O)c1ccnc2ccc(OC)cc12 [Compound 1031, Quinine sulfate] the “Compound effect (percent receptor signaling in presence of test compound, relative lux units relative to the SCH23390 control)” value was 79. With N[C@@H](Cn1oc(=O)[nH]c1=O)C(=O)O [Compound 1032, (+)-Quisqualic acid] the “Compound effect (percent receptor signaling in presence of test compound, relative lux units relative to the SCH23390 control)” value was 80. In the case of CCN(CC)CCCC(C)Nc1c2ccc(Cl)cc2nc2ccc(OC)cc12 (stereo not drawn) [Compound 1033, Quinacrine dihydrochloride], the “Compound effect (percent receptor signaling in presence of test compound, relative lux units relative to the SCH23390 control)” value is reported as 94. For C[C@@H]1C(=O)NC2=Nc3cccc(Cl)c3CN21 [Compound 1034, Quazinone], the “Compound effect (percent receptor signaling in presence of test compound, relative lux units relative to the SCH23390 control)” value was 108. In the case of C[C@]12CCC(=O)C=C1CC[C@@H]1[C@@H]2CC[C@@]2(C)[C@H]1CC[C@]2(O)C(=O)CO [Compound 1040, Cortexolone], the “Compound effect (percent receptor signaling in presence of test compound, relative lux units relative to the SCH23390 control)” value is reported as 99. CC(NCCc1ccc(O)cc1)C(O)c1ccc(O)cc1 (stereo not drawn) [Compound 1041, Ritodrine hydrochloride] was tested, and the “Compound effect (percent receptor signaling in presence of test compound, relative lux units relative to the SCH23390 control)” value was 119. With O=C(c1ccc(OCCN2CCCCC2)cc1)c1c(-c2ccc(O)cc2)sc2cc(O)ccc12 [Compound 1042, Raloxifene hydrochloride] the “Compound effect (percent receptor signaling in presence of test compound, relative lux units relative to the SCH23390 control)” value was 103. For CC1=C(/C=C/C(C)=C/C=C/C(C)=C/C(=O)O)C(C)(C)CCC1 [Compound 1043, Retinoic acid], the “Compound effect (percent receptor signaling in presence of test compound, relative lux units relative to the SCH23390 control)” value was 106. N.N.N.N.N.N.N.N.N.N.N.N.N.N.[Cl-].[Cl-].[Cl-].[Cl-].[Cl-].[Cl-].[O-2].[O-2].[Ru+3].[Ru+3].[Ru+4] [Compound 1044, Ruthenium red] was tested, and the “Compound effect (percent receptor signaling in presence of test compound, relative lux units relative to the SCH23390 control)” value was 61. CC1=C(/C=C/C(C)=C/C=C/C(C)=C\C(=O)O)C(C)(C)CCC1 [Compound 1045, 13-cis-retinoic acid] was tested, and the “Compound effect (percent receptor signaling in presence of test compound, relative lux units relative to the SCH23390 control)” value was 72. With O=c1c2ccccc2nc2n1CCc1c-2[nH]c2ccccc12 [Compound 1046, Rutaecarpine] the “Compound effect (percent receptor signaling in presence of test compound, relative lux units relative to the SCH23390 control)” value was 78. With CCCN(CCC)CCc1cccc2c1CC(=O)N2 [Compound 1047, Ropinirole hydrochloride] the “Compound effect (percent receptor signaling in presence of test compound, relative lux units relative to the SCH23390 control)” value was 103. In the case of CCCCCC(O)c1cccc(OCc2ccc3ccccc3n2)c1 (stereo not drawn) [Compound 1049, REV 5901], the “Compound effect (percent receptor signaling in presence of test compound, relative lux units relative to the SCH23390 control)” value is reported as 103. With CC(=O)c1c(O)c(C)c(O)c(Cc2c(O)c3c(c(C(=O)/C=C/c4ccccc4)c2O)OC(C)(C)C=C3)c1O [Compound 1050, Rottlerin] the “Compound effect (percent receptor signaling in presence of test compound, relative lux units relative to the SCH23390 control)” value was 35. With COc1ccccc1OCC(O)CN1CCN(CC(=O)Nc2c(C)cccc2C)CC1 (stereo not drawn) [Compound 1051, Ranolazine dihydrochloride] the “Compound effect (percent receptor signaling in presence of test compound, relative lux units relative to the SCH23390 control)” value was 100. COc1ccc(C2CNC(=O)C2)cc1OC1CCCC1 (stereo not drawn) [Compound 1052, Rolipram] was tested, and the “Compound effect (percent receptor signaling in presence of test compound, relative lux units relative to the SCH23390 control)” value was 118. CC[C@H](CO)Nc1nc(NCc2ccccc2)c2ncn(C(C)C)c2n1 [Compound 1055, Roscovitine] was tested, and the “Compound effect (percent receptor signaling in presence of test compound, relative lux units relative to the SCH23390 control)” value was 28. For C=C(C)[C@H]1Cc2c(ccc3c2O[C@@H]2COc4cc(OC)c(OC)cc4[C@@H]2C3=O)O1 [Compound 1056, Rotenone], the “Compound effect (percent receptor signaling in presence of test compound, relative lux units relative to the SCH23390 control)” value was 41. NC(=O)c1ccc(OCC(O)CN2CC=C(c3ccc(F)cc3)CC2)cc1 (stereo not drawn) [Compound 1057, Ro 8-4304] was tested, and the “Compound effect (percent receptor signaling in presence of test compound, relative lux units relative to the SCH23390 control)” value was 115.

Same assay, conditions: 10 µM compound, 300 nM dopamine, 2 hr; hit = compound effect <20
For CCCN1CCC[C@H](c2cccc(O)c2)C1.Cl [Compound 1003, R(+)-3PPP hydrochloride], the “Compound effect (percent receptor signaling in presence of test compound, relative lux units relative to the SCH23390 control)” value was 86%. For CCCN1CCC[C@@H](c2cccc(O)c2)C1.Cl [Compound 1004, S(-)-3PPP hydrochloride], the “Compound effect (percent receptor signaling in presence of test compound, relative lux units relative to the SCH23390 control)” value was 89%. In the case of Cl.NCC#Cc1ccccc1 [Compound 1006, 3-Phenylpropargylamine hydrochloride], the “Compound effect (percent receptor signaling in presence of test compound, relative lux units relative to the SCH23390 control)” value is reported as 91%. In the case of Cc1nc(N=Nc2ccc(S(=O)(=O)O)cc2S(=O)(=O)O)c(COP(=O)(O)O)c(C=O)c1O [Compound 1018, PPADS], the “Compound effect (percent receptor signaling in presence of test compound, relative lux units relative to the SCH23390 control)” value is reported as 103%. For CCCN1CCO[C@@H]2c3cc(O)ccc3OC[C@H]21.Cl [Compound 1019, S(+)-PD 128,907 hydrochloride], the “Compound effect (percent receptor signaling in presence of test compound, relative lux units relative to the SCH23390 control)” value was 89%. O=C([O-])CCC(NC(=O)c1ccccc1C(=O)[O-])C(=O)[O-].[Na+].[Na+].[Na+] [Compound 1022, Phthalamoyl-L-glutamic acid trisodium] was tested, and the “Compound effect (percent receptor signaling in presence of test compound, relative lux units relative to the SCH23390 control)” value was 97%. CN1CCN(c2ccc3ccccc3n2)CC1.O=C(O)/C=C\C(=O)O.O=C(O)/C=C\C(=O)O [Compound 1036, Quipazine, N-methyl-, dimaleate] was tested, and the “Compound effect (percent receptor signaling in presence of test compound, relative lux units relative to the SCH23390 control)” value was 74%. With O=C(O)/C=C\C(=O)O.O=[N+]([O-])c1ccc2nc(N3CCNCC3)ccc2c1 [Compound 1037, Quipazine, 6-nitro-, maleate] the “Compound effect (percent receptor signaling in presence of test compound, relative lux units relative to the SCH23390 control)” value was 92%. With CCCN1CCC[C@@H]2Cc3nc(N)ncc3C[C@H]21 [Compound 1038, Quinelorane dihydrochloride] the “Compound effect (percent receptor signaling in presence of test compound, relative lux units relative to the SCH23390 control)” value was 99%. In the case of C[C@@H](CN1CCC(Cc2ccccc2)CC1)[C@@H](O)c1ccc(O)cc1.Cl [Compound 1053, Ro 25-6981 hydrochloride], the “Compound effect (percent receptor signaling in presence of test compound, relative lux units relative to the SCH23390 control)” value is reported as 70%. With CC(C)C[C@H](NP(=O)([O-])O[C@H]1O[C@H](C)[C@@H](O)[C@H](O)[C@@H]1O)C(=O)N[C@@H](Cc1c[nH]c2ccccc12)C(=O)[O-].[Na+].[Na+] [Compound 1054, Phosphoramidon disodium] the “Compound effect (percent receptor signaling in presence of test compound, relative lux units relative to the SCH23390 control)” value was 104%. COC1(C2=NCCN2)COc2ccccc2O1.Cl (stereo not drawn) [Compound 1058, RX 821002 hydrochloride] was tested, and the “Compound effect (percent receptor signaling in presence of test compound, relative lux units relative to the SCH23390 control)” value was 121%.

Same assay, conditions: read-out: % of the SCH23390 effect (percent inhibition of receptor response relative to the SCH23390 control)
Cc1nc2ccccn2c(=O)c1CCN1CCC(C(=O)c2ccc(F)cc2)CC1 [Compound 1013, Pirenperone] showed an inhibition at 10 µM of 90%.
